Data: patent US7750048B2, “GPR40 agonists” (Janssen Pharmaceutica NV, priority 2006, dated 2010)
Several values for one entry are separate records, joined by “and”; a condition that tells them apart may be missing. Identical values can stand only once.

These compounds were tested against T1, GPR40 receptor (Homo sapiens, UniProt O14842) (assay: GPR40 in vitro assay: calcium mobilization in transfected HEK293/hGPR40-32 cells (FDSS6000)). Conditions: several values in one cell are separate determinations, read-out: ED50 (the source's name).
T1 construct: expressed in transfected cells; host or cells: HEK293 (clone hGPR40-32)
Assay type: cell-based
Description: To identify agonists of GPR40 receptor, the following assay was used to measure FFA-induced calcium mobilization in transfected cell lines HEK293/hGPR40-32: • Plate 20,000 cell/well in Corning 384 well plate (Cat# 3712); • Incubate over night (16 to 24 hours); • Remove medium; • Add 40 μl of 1×BD dye (1× signal enhancer, 1× calcium indicator dye, 1× probenecid, 0.01% BSA in DMEM/F12 media without Phenol Rad); • Incubate 30 minutes at 37° C. and 15 minutes at RT; • Read with the FDSS6000 System; • Add 20 μl of test compound (in 0.01% BSA in DMEM/F12 media without Phenol Rad); • Read for 5 minutes; • Add 20 μl of 40 μM linolenic acid or GPR40 agonist (in 0.01% BSA in DMEM/F12 media without Phenol Rad); • Read for 2 minutes.
Percentage Inhibition and/or ED50 were calculated following conventional methods.

T1 sequence (O14842 whole entry): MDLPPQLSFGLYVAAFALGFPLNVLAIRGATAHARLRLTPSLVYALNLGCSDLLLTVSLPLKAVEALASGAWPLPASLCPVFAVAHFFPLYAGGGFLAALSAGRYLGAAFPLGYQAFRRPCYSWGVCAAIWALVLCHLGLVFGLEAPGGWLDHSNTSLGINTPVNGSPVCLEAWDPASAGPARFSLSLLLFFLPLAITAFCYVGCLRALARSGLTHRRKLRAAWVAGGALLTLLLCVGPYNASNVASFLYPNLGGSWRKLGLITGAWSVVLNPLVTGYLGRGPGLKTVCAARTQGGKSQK

Row | SMILES | EC50
1 | CC=CCOc1ccc(C(CC(=O)O)c2ccccc2)cc1 (stereo not drawn) [Compound 9, 3-(4-But-2-enyloxy-phenyl)-3-phenyl-propionic acid] | 2.71 µM
2 | O=C(O)CC(c1ccccc1)c1ccc(OCCCC(F)(F)F)cc1 (stereo not drawn) [Compound 6, 3-Phenyl-3-[4-(4,4,4-trifluoro-butoxy)-phenyl]-propionic acid] | 3.16 µM
3 | CCCCCOc1ccc(C(CC(=O)O)c2ccccc2)cc1 (stereo not drawn) [Compound 3, 3-(4-Pentyloxy-phenyl)-3-phenyl-propionic acid] | 3.3 µM and 4.2 µM and 1.4 µM
4 | CCCCOc1ccc(C(CC(=O)O)c2cccc(C(F)(F)F)c2)cc1 (stereo not drawn) [Compound 21, 3-(4-Butoxy-phenyl)-3-(3-trifluoromethyl-phenyl)-propionic acid] | 2.84 µM
5 | CCC(C)COc1ccc(C(CC(=O)O)c2ccccc2)cc1 (stereo not drawn) [Compound 12, 3-[4-(2-Methyl-butoxy)-phenyl]-3-phenyl-propionic acid] | 0.33 µM and 0.26 µM
6 | CCCCOc1ccc(C(CC(=O)O)c2ccc(OC(F)(F)F)cc2)cc1 (stereo not drawn) [Compound 26, 3-(4-Butoxy-phenyl)-3-(4-trifluoromethoxy-phenyl)-propionic acid] | > 10 µM
7 | CCCCOc1ccc(C(CC(=O)O)c2ccccc2)cc1 (stereo not drawn) [Compound 2, 3-(4-Butoxy-phenyl)-3-phenyl-propionic acid] | 1.43 µM and 0.96 µM
8 | CC(C)(C)CCOc1ccc(C(CC(=O)O)c2ccccc2)cc1 (stereo not drawn) [Compound 28, 3-[4-(3,3-Dimethyl-butoxy)-phenyl]-3-phenyl-propionic acid] | > 10 µM
9 | CCC(CC)COc1ccc(C(CC(=O)O)c2ccccc2)cc1 (single isomer, unassigned) [Compound 14, 3-[4-(2-Ethyl-butoxy)-phenyl]-3-phenyl-propionic acid] | > 30 µM
10 | C=C(C)CCOc1ccc(C(CC(=O)O)c2ccccc2)cc1 (stereo not drawn) [Compound 8, 3-[4-(3-Methyl-but-3-enyloxy)-phenyl]-3-phenyl-propionic acid] | 2.71 µM
11 | CCCCCCOc1ccc(C(CC(=O)O)c2ccccc2)cc1 (stereo not drawn) [Compound 4, 3-(4-Hexyloxy-phenyl)-3-phenyl-propionic acid] | 2.88 µM
12 | CCC(CC)COc1ccc(C(CC(=O)O)c2ccccc2)cc1 (racemic) [Compound 11, 3-[4-(2-Ethyl-butoxy)-phenyl]-3-phenyl-propionic acid] | 0.64 µM
13 | COCCOc1ccc(C(CC(=O)O)c2ccccc2)cc1 (stereo not drawn) [Compound 24, 3-[4-(2-Methoxy-ethoxy)-phenyl]-3-phenyl-propionic acid] | > 10 µM
14 | CC[C@@H](C)COc1ccc(C(CC(=O)O)c2ccccc2)cc1 (single isomer, unassigned) [Compound 18, 3-[4-(2-Methyl-butoxy)-phenyl]-3-phenyl-propionic acid] | > 10 µM
15 | CC1CCC(Oc2ccc(C(CC(=O)O)c3ccccc3)cc2)CC1 (stereo not drawn) [Compound 13, 3-[4-(4-Methyl-cyclohexyloxy)-phenyl]-3-phenyl-propionic acid] | 7.32 µM
16 | CCC(CC)COc1ccc(C(CC(=O)O)c2ccccc2)cc1 (single isomer, unassigned) [Compound 15, 3-[4-(2-Ethyl-butoxy)-phenyl]-3-phenyl-propionic acid] | 0.85 µM
17 | CCCCOc1ccc(C(CC(=O)O)c2cccc(F)c2)cc1 (stereo not drawn) [Compound 20, 3-(4-Butoxy-phenyl)-3-(3-fluoro-phenyl)-propionic acid] | 1.44 µM
18 | CCCCOc1ccc(C(CC(=O)O)c2ccccc2O)cc1 (stereo not drawn) [Compound 22, 3-(4-Butoxy-phenyl)-3-(2-hydroxy-phenyl)-propionic acid] | 4.8 µM
19 | CCCCCCCOc1ccc(C(CC(=O)O)c2ccccc2)cc1 (stereo not drawn) [Compound 5, 3-(4-Heptyloxy-phenyl)-3-phenyl-propionic acid] | 4.26 µM
20 | CC[C@H](C)COc1ccc(C(CC(=O)O)c2ccccc2)cc1 (single isomer, unassigned) [Compound 17, 3-[4-(2-Methyl-butoxy)-phenyl]-3-phenyl-propionic acid] | 0.56 µM
21 | CCCOc1ccc(C(CC(=O)O)c2ccccc2)cc1 (stereo not drawn) [Compound 1, 3-Phenyl-3-(4-propoxy-phenyl)-propionic acid] | 3.7 µM
22 | CC(C)CCOc1ccc(C(CC(=O)O)c2ccccc2)cc1 (stereo not drawn) [Compound 7, 3-[4-(3-Methyl-butoxy)-phenyl]-3-phenyl-propionic acid] | 1.81 µM and 2.58 µM and 1.18 µM
23 | CC[C@@H](C)COc1ccc(C(CC(=O)O)c2ccccc2)cc1 (single isomer, unassigned) [Compound 16, 3-[4-(2-Methyl-butoxy)-phenyl]-3-phenyl-propionic acid] | 0.71 µM
24 | COCCCOc1ccc(C(CC(=O)O)c2ccccc2)cc1 (stereo not drawn) [Compound 10, 3-[4-(3-methoxy-propoxy)-phenyl]-3-phenyl-propionic acid] | 7.58 µM
25 | CC[C@H](C)COc1ccc(C(CC(=O)O)c2ccccc2)cc1 (single isomer, unassigned) [Compound 19, 3-[4-(2-Methyl-butoxy)-phenyl]-3-phenyl-propionic acid] | > 10 µM
26 | CCCCOc1ccc(C(CC(=O)O)c2cccs2)cc1 (stereo not drawn) [Compound 23, 3-(4-Butoxy-phenyl)-3-thiophen-2-yl-propionic acid] | 0.96 µM and 1.61 µM
27 | CCC(CC)Oc1ccc(C(CC(=O)O)c2ccccc2)cc1 (stereo not drawn) [Compound 25, 3-[4-(1-Ethyl-propoxy)-phenyl]-3-phenyl-propionic acid] | > 10 µM
